These results are taken from publication PMC12531613, “Synthesis and Biological Evaluation of Novel 2‐(Piperidin‐4‐yl)‐1,2,3,4‐tetrahydroisoquinoline and 2‐(Piperidin‐4‐yl)decahydroisoquinoline Antimycotics” (Archiv Der Pharmazie, 2025).

The structures appear in SMILES notation. In brackets after ≈: the same amount, converted by molar mass. Read-outs that look alike come from different tables or passages of the source. Where only a bound is given, the exact number is not on record here.

In one data set the test system is A. fumigatus (R7). Kind of data set: MIC90 growth inhibition of molds (EUCAST), A. fumigatus (R7). The data set is classed as cell-based. The settings on record: Aspergillus fumigatus. How it is done:
(§1) Determination of MICs (minimal inhibitory concentration) against Candida species was carried out according to the European Committee of Antifungal Susceptibility Testing. Concentration of yeast cells was determined by photometer and adjusted to a turbidity of 0.5 according to McFarland standard. MIC90 was determined by microdilution plate reader (Sunrise Tecan) at 450 nm, after 24 h incubation at 37°C. MIC90 was defined as the minimal concentration of chemical causing 90% growth inhibition, respectively. Growth inhibition of molds was determined by eye and microscopically, following EUCAST guidelines. All substances were dissolved in DMSO and diluted in RPMI 1640 medium, containing 2% glucose. All assays were carried out twice.

A further data set deals with A. fumigatus (R16). Description: MIC90 growth inhibition of molds (EUCAST), A. fumigatus (R16). The data set is classed as cell-based. As to conditions: Aspergillus fumigatus. How it is done: as §1
The test system of a further data set is molds. Kind of data set: Growth inhibition of molds. The data set is classed as cell-based. As to conditions: against the molds. The protocol:
as §1

Another data set deals with R. microsporus. Kind of data set: MIC90 growth inhibition of molds (EUCAST), R. microsporus. It is filed as cell-based. As to conditions: Rhizopus microsporus. The protocol:
as §1

Data set [1] can be described thus: MTT cytotoxicity assay against HL 60 cells. The data set is classed as cell-based. The settings on record: human. The protocol:
The cytotoxicity of the active compounds was checked in an MTT assay against human HL 60 cells. […] Although, this corresponds to the MIC range that would be needed in treatment, the values are within the range observed for commonly used antimycotics such as amorolfine and posaconazole. All active compounds were evaluated for their biopharmaceutical behavior and drug‐likeness using the online program SwissADME [26] and should show oral bioavailability according to the Lipinski rules of five.
HL‐60 cells (human leukemia cells, DSM No. ACC3) were obtained from DSMZ (German Collection of Microorganisms and Cell Cultures, Braunschweig, Germany) and cultivated in RPMI 1640 medium with 10% fetal bovine serum (FBS), both from PAA Laboratories, Cölbe, Germany) without the addition of antibiotics at 37°C in a humidified atmosphere containing 5% CO2. The assay was performed according to lit.
In general terms: Formazan colour is commonly taken as a measure of viable cells.

Another data set has as its system R. arrhizus (oryzae). Kind of data set: MIC90 growth inhibition of molds (EUCAST), R. arrhizus (oryzae). It is filed as cell-based. As to conditions: Rhizopus arrhizus. How it is done: as §1
For another data set, the system named is C. krusei. Kind of data set: MIC90 microdilution (EUCAST), C. krusei. The data set is classed as cell-based. The settings on record: Pichia kudriavzevii, 24 h. How it is done:
as §1
On the technique in general: Dilution methods test growth across graded concentrations, often in twofold steps.

The subject of the next data set is C. glabrata. Kind of data set: MIC90 microdilution (EUCAST), C. glabrata. The data set is classed as cell-based. The settings on record: Nakaseomyces glabratus, 24 h. How it is done: as §1
The next data set deals with C. albicans. Description: MIC90 microdilution (EUCAST), C. albicans. As to conditions: Candida albicans, 24 h. It is filed as cell-based. The protocol: as §1
The next data set relates to Yarrowia lipolytica. Kind of data set: MIC100 microdilution assay against Yarrowia lipolytica. It is filed as cell-based. The protocol:
In previous research we found a good correlation between MIC values against Yarrowia lipolytica and pathogenic Candida species.
Determination of MICs against Yarrowia lipolytica (DSMZ, Braunschweig, Germany) was carried out according to lit. Yarrowia lipolytica was cultivated in AC‐agar (Sigma Aldrich). Concentration of yeast cells was determined by photometer and adjusted to a turbidity of 0.5 according to McFarland standard at 600 nm. All substances were dissolved in DMSO or methanol.
Determination of MICs (minimal inhibitory concentration) against Yarrowia lipolytica was carried out according to Lit.^[13] Concentration of yeast cells was determined by photometer and adjusted to a turbitity of 0.5 according to McFarland Standard.

Another data set deals with A. fumigatus (A65). Description: MIC90 growth inhibition of molds (EUCAST), A. fumigatus (A65). The data set is classed as cell-based. As to conditions: Aspergillus fumigatus, RPMI 1640, 2% glucose, read by eye and microscopically. The protocol:
Determination of MICs (minimal inhibitory concentration) against Candida species was carried out according to the European Committee of Antifungal Susceptibility Testing. Concentration of yeast cells was determined by photometer and adjusted to a turbidity of 0.5 according to McFarland standard. […] Growth inhibition of molds was determined by eye and microscopically, following EUCAST guidelines. […] All assays were carried out twice.

A further data set relates to Candida species. As to conditions: reported values; cited from earlier work.
For a further data set, the system named is Candida isolates. Description: MIC90 against Candida isolates. The data set is classed as cell-based. The settings on record: span over the Candida isolates tested. How it is done: as §1
[2] abbreviates: HL-60 cells (human leukemia cells), HL 60 cell line, MTT assay, read-out: IC50 cytotoxicity.
Setting [3] is: 48 h, read-out: Biological Activity MIC Yarrowia lipolytica.
[4] abbreviates: read-out: MIC100 (molar value in brackets).

Usually MIC90 stands for an inhibitory concentration at the 90% level, which refers to growth in some studies and to a panel of isolates in others. What is called IC50 is the concentration needed to halve the response being measured.

`CC(C)=CCC/C(C)=C/CN1CCC(N2CCC3CCCCC3C2)CC1` (centres unmarked) [6l, 2‐{1‐[(2E)‐3,7‐Dimethylocta‐2,6‐dien‐1‐yl]piperidin‐4‐yl}‐decahydroisoquinoline]: the MIC90 in the data set with A. fumigatus (R7) is above 32 µg/mL; in the data set with A. fumigatus (R16), above 32 µg/mL; in the data set with R. microsporus it was above 32 µg/mL; in the data set with R. arrhizus (oryzae), 16 µg/mL (≈ 44.6 µM); in the data set on C. krusei, 4 µg/mL (≈ 11.2 µM); with C. glabrata, above 32 µg/mL. Also, the values for the MIC90 in the data set with C. albicans and in the data set on A. fumigatus (A65) were 32 µg/mL (≈ 89.2 µM) and above 32 µg/mL, respectively. Further, the “growth inhibition at concentrations (molds)” value (from here on “growth inhibition”) in the data set with molds lay within 16 to 32 µg/mL. Besides, the IC50 in [1] (setting [2]) stood at 26 µg/mL (≈ 72.5 µM). For the same compound, the MIC with Yarrowia lipolytica (setting [3]) amounted to 12.5 µg/mL; in the data set on Yarrowia lipolytica (48 h, read-out: MIC100) it was 12.5 µg/mL; in the data set on Yarrowia lipolytica (setting [4]), 34.9 µM.
As for `CCCCN1CCC(N2CCC3CCCCC3C2)CC1` (racemic) [6g, (±)‐2‐(1‐Butylpiperidin‐4‐yl)‐decahydroisoquinoline], the MIC90 in the data set on A. fumigatus (R7) (A. fumigatus (R7), RPMI 1640, 2% glucose, read by eye and microscopically, read-out: MIC90) was above 32 µg/mL; in the data set on A. fumigatus (R16) (A. fumigatus (R16), RPMI 1640, 2% glucose, read by eye and microscopically, read-out: MIC90), above 32 µg/mL; in the data set on R. microsporus (R. microsporus, RPMI 1640, 2% glucose, read by eye and microscopically, read-out: MIC90) it was above 32 µg/mL; in the data set on R. arrhizus (oryzae) (R. arrhizus (oryzae), RPMI 1640, 2% glucose, read by eye and microscopically, read-out: MIC90) it was above 32 µg/mL; in the data set with C. krusei (C. krusei, RPMI 1640, 2% glucose, 37°C, duplicate, read-out: MIC90) it was above 32 µg/mL; in the data set on C. glabrata (C. glabrata, RPMI 1640, 2% glucose, 37°C, duplicate, read-out: MIC90), above 32 µg/mL. In addition, the MIC90 is above 32 µg/mL in the data set with C. albicans (C. albicans, RPMI 1640, 2% glucose, 37°C, duplicate, read-out: MIC90) and above 32 µg/mL against A. fumigatus (A65). In [1], this compound showed a concentration for half-maximal inhibition (IC50) above 100 µg/mL. The MIC was above 100 µg/mL in the data set with Yarrowia lipolytica (microdilution, 48 h, 25°C, 600 nm, read-out: MIC100) and above 100 µg/mL in the data set with Yarrowia lipolytica (supplement table, MIC100, 48 h, 25°C, 600 nm, read-out: Biological Activity MIC Yarrowia lipolytica).
In the case of `CC(Cc1ccc(C(C)(C)C)cc1)CN1CCCCC1` (centres unmarked) [fenpropidin], the “MIC values against Candida species” value in the data set on Candida species was 0.25 to 1 µg/mL.
`CC(C)=CCCC(C)CCN1CCC(N2CCC3CCCCC3C2)CC1` (racemic) [6k, (±)‐2‐[1‐(3,7‐Dimethyloct‐6‐en‐1‐yl)‐piperidin‐4‐yl]‐decahydroisoquinoline]: the MIC90 against A. fumigatus (R7) was above 32 µg/mL; in the data set on A. fumigatus (R16), above 32 µg/mL; against R. microsporus, above 32 µg/mL; with R. arrhizus (oryzae) it was 16 µg/mL (≈ 44.4 µM); in the data set with C. krusei it was 8 µg/mL (≈ 22.2 µM); with C. glabrata, above 32 µg/mL. The MIC90 is 16 µg/mL (≈ 44.4 µM) with C. albicans and above 32 µg/mL with A. fumigatus (A65). For the same compound, the “growth inhibition” value with molds fell in the range of 16 to 32 µg/mL. For the same compound, in [1] (setting [2]), the IC50 amounted to 17 µg/mL (≈ 47.1 µM). In addition, the MIC with Yarrowia lipolytica (setting [3]) was determined as 6.3 µg/mL; in the data set on Yarrowia lipolytica (48 h, read-out: MIC100) it was 6.3 µg/mL; in the data set with Yarrowia lipolytica (setting [4]) it was 17.5 µM.
`CCCCCCCCN1CCC(N2CCc3cc(OC)c(OC)cc3C2)CC1` [6e, 6,7‐Dimethoxy‐2‐(1‐octylpiperidin‐4‐yl)‐1,2,3,4‐tetrahydroisoquinoline]: the MIC90 in the data set on A. fumigatus (R7) was above 32 µg/mL; against A. fumigatus (R16), above 32 µg/mL; in the data set on R. microsporus, above 32 µg/mL; with R. arrhizus (oryzae), above 32 µg/mL; in the data set on C. krusei it was 8 µg/mL (≈ 20.6 µM); in the data set with C. glabrata, above 32 µg/mL. Besides, the values for the MIC90 in the data set on C. albicans and in the data set with A. fumigatus (A65) were 32 µg/mL (≈ 82.3 µM) and above 32 µg/mL, respectively. In data set [1] (setting [2]), the IC50 is above 100 µg/mL. The MIC in the data set with Yarrowia lipolytica (setting [3]) is 1.6 µg/mL; in the data set with Yarrowia lipolytica (48 h, read-out: MIC100), 1.6 µg/mL; in the data set on Yarrowia lipolytica (setting [4]), 4.1 µM.
In the case of `CC(Cc1ccc(C(C)(C)C)cc1)CN1C[C@@H](C)O[C@@H](C)C1` (some centres unmarked) [fenpropimorph], the “MIC values against Candida species” value in the data set on Candida species was 0.5 to 2 µg/mL.
For the compound `CCCCCCCCCCCCN1CCC(N2CCC3CCCCC3C2)CC1` (racemic) [6i, (±)‐2‐(1‐Dodecylpiperidin‐4‐yl)‐decahydroisoquinoline], the MIC90 was 32 µg/mL (≈ 81.9 µM) with A. fumigatus (R7); 32 µg/mL (≈ 81.9 µM) against A. fumigatus (R16); above 32 µg/mL with R. microsporus; above 32 µg/mL against R. arrhizus (oryzae); 16 µg/mL (≈ 41 µM) in the data set on C. glabrata; 32 µg/mL (≈ 81.9 µM) in the data set on A. fumigatus (A65). Also, in the data set on Candida isolates, the MIC90 was 2 to 16 µg/mL (≈ 5.12 to 41 µM). In addition, in the data set on molds, the “growth inhibition” value was 16 to 32 µg/mL. Besides, the IC50 in data set [1] (setting [2]) amounted to 23 µg/mL (≈ 58.9 µM). Further, the MIC is 1.6 µg/mL in the data set on Yarrowia lipolytica (setting [3]); 1.6 µg/mL with Yarrowia lipolytica (48 h, read-out: MIC100); 4.1 µM with Yarrowia lipolytica (setting [4]).
Consider `CCCCCCCCCCCCN1CCC(N2CCc3cc(OC)c(OC)cc3C2)CC1` [6f, 2‐(1‐Dodecylpiperidin‐4‐yl)‐6,7‐dimethoxy‐1,2,3,4‐tetrahydroisoquinoline], for which the MIC90 is above 32 µg/mL in the data set on A. fumigatus (R7); above 32 µg/mL in the data set with A. fumigatus (R16); above 32 µg/mL in the data set with R. microsporus; above 32 µg/mL with R. arrhizus (oryzae); 2 µg/mL (≈ 4.5 µM) in the data set on C. krusei; 4 µg/mL (≈ 8.99 µM) against C. albicans. Further, the MIC90 was above 32 µg/mL against A. fumigatus (A65) and 2 to 16 µg/mL (≈ 4.5 to 36 µM) against Candida isolates. In addition, in data set [1] (setting [2]), the IC50 was determined as 6 µg/mL (≈ 13.5 µM). Moreover, the MIC in the data set on Yarrowia lipolytica (setting [3]) worked out at 3.1 µg/mL; in the data set with Yarrowia lipolytica (48 h, read-out: MIC100), 3.1 µg/mL; in the data set on Yarrowia lipolytica (setting [4]) it was 7 µM.
In the case of `CCCCCCCCN1CCC(N2CCC3CCCCC3C2)CC1` (racemic) [6h, (±)‐2‐(1‐Octylpiperidin‐4‐yl)decahydroisoquinoline], the MIC90 is above 32 µg/mL in the data set with A. fumigatus (R7); above 32 µg/mL in the data set on A. fumigatus (R16); above 32 µg/mL with R. microsporus; 8 µg/mL (≈ 23.9 µM) in the data set with C. krusei; above 32 µg/mL with C. glabrata; above 32 µg/mL against C. albicans. This compound also yielded an MIC90 in the data set on A. fumigatus (A65) above 32 µg/mL. Also, the IC50 in data set [1] (setting [2]) came to 75 µg/mL (≈ 224 µM). The MIC in the data set on R. arrhizus (oryzae) (read-out: MIC90) amounted to 32 µg/mL (≈ 95.6 µM); in the data set on Yarrowia lipolytica (setting [3]) it was 3.1 µg/mL; with Yarrowia lipolytica (48 h, read-out: MIC100), 3.1 µg/mL.
